From article PMC11905624 (BMC Biology, 2025)
Values belong to the molecule of their own block, whether it stands above or below them. Peptide text beside a SMILES is read from it.

Legend:
B2 receptor = molecular target: T1, B2 receptor (Homo sapiens, UniProt P30411); test: Intracellular calcium flux in HaCaT cells; format: cell-based
T1 construct: endogenous in cells; host or cells: HaCaT
T1 sequence (P30411 1-391): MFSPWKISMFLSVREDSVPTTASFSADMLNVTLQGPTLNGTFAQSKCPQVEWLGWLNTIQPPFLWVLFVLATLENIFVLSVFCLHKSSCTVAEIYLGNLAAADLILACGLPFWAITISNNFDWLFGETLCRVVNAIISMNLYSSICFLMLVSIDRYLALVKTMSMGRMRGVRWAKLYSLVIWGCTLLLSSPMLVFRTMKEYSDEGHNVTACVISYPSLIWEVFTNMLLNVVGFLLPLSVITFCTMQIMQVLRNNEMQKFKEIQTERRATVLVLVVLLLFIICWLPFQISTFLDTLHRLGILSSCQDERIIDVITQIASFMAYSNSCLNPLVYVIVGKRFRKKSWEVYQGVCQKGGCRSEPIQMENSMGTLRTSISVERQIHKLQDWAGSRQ
Procedure: HaCaT cells were seeded onto 96-well plates and, upon reaching full confluence, were starved for 3 h (medium without FBS). […] After 1.5 h in 37 °C, fluorescence intensity (485/525 nm) was recorded continuously for 5 min using FlexStation 3 (Molecular Devices). […] FBS (3%) served as positive control. Results were calculated as area under the curves of RFU fold change from the signal recorded at baseline and adjusted to % of maximum response (FBS) curve. Non-linear regression analyses were performed to generate dose–response curves and calculate EC50 values.

pKLK = molecular target: T2, pKLK (Homo sapiens, UniProt P03952); test: BK release from HMWK by pKLK, HPLC; format: biochemical; settings: 5 µg HMWK, 500 nM pKLK, 24 h, 50 mM Tris-HCl pH 7.5, 37 °C
T2 construct: purchased Merck
Procedure: Ten µg of BK or cBK (ProImmune) were incubated with 15 ng of CPM (RnD; 1 h in 50 mM MES buffer pH 6.0 containing 5 mM CaCl2, 0.2% Triton-X100), 20 ng of NEP (RnD; 2 h in 50 mM HEPES buffer pH 7.4 containing 150 mM NaCl, 0,01% Triton-X100) or 40 ng of ACE1 (Merck; 4 h in 20 mM HEPES buffer containing 100 µM ZnCl2, 300 mM KCl) in final volume of 11 µl in 37 °C. Substrate controls were incubated in parallel without enzymes. Five µg of HMWK (Merck) were incubated with 500 nM of pKLK (Merck; 24 h in 50 mM Tris–HCl buffer pH 7.5 containing 100 mM NaCl, 0.01% Triton-X100) in final volume of 35 µl in 37 °C. Reactions were stopped with addition of TFA, TCA, EDTA and inhibitors for ACE1 (1 µM lisinopril), NEP (4 mM thiorphan), pKLK (1 mM AEBSF), and analysed via HPLC.
Absorbance chromatograms (215 nm) were evaluated with the LabSolutions software.

T2 sequence (P03952 20-638): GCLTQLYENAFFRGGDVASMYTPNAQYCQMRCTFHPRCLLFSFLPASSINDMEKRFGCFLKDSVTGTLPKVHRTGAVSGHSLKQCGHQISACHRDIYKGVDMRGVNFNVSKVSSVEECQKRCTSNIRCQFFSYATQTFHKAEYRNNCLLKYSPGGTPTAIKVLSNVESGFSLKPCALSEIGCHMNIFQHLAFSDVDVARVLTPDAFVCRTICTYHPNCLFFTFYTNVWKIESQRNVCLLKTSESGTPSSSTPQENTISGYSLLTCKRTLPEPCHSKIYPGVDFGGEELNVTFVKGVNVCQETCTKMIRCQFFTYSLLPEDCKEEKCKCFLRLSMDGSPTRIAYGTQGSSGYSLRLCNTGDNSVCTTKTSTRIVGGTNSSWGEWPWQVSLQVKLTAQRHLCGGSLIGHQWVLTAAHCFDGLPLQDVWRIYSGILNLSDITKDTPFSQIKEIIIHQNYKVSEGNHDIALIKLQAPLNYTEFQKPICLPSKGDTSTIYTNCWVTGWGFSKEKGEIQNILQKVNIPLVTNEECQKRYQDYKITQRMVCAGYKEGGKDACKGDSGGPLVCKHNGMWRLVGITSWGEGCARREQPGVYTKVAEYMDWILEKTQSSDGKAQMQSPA

Molecule: N=C(N)NCCC[C@H](NC(=O)[C@H](Cc1ccccc1)NC(=O)[C@@H]1CCCN1C(=O)[C@H](CO)NC(=O)[C@H](Cc1ccccc1)NC(=O)CNC(=O)[C@@H]1CCCN1C(=O)[C@@H]1CCCN1C(=O)[C@H](CCCNC(=N)N)NC(N)=O)C(=O)O [cBK] (HELM PEPTIDE1{[N=C(N)NCCC[C@H](NC(N)=O)C(=O)[*:2]].P.P.G.F.S.P.F.R}$$$$V2.0)
B2-stimulatory potential lower than the response elicited by native BK (B2 receptor; 100 nM peptide, calcium sensitive dye): over 25%
EC50 (B2 receptor; Calcium Dye 5, AUC of RFU fold change as % of maximum response (FBS), n = 6, mean ± SEM): 26.55 ± 0.0011 nM

pKLK-driven generation of BK (pKLK): abolishes
B1: carbamylated HMWK: carbamylated high molecular weight kininogen (protein, UniProt P01042 19-644, looked up)
Kininogen-1: QESQSEEIDCNDKDLFKAVDAALKKYNSQNQSNNQFVLYRITEATKTVGSDTFYSFKYEIKEGDCPVQSGKTWQDCEYKDAAKAATGECTATVGKRSSTKFSVATQTCQITPAEGPVVTAQYDCLGCVHPISTQSPDLEPILRHGIQYFNNNTQHSSLFMLNEVKRAQRQVVAGLNFRITYSIVQTNCSKENFLFLTPDCKSLWNGDTGECTDNAYIDIQLRIASFSQNCDIYPGKDFVQPPTKICVGCPRDIPTNSPELEETLTHTITKLNAENNATFYFKIDNVKKARVQVVAGKKYFIDFVARETTCSKESNEELTESCETKKLGQSLDCNAEVYVVPWEKKIYPTVNCQPLGMISLMKRPPGFSPFRSSRIGEIKEETTVSPPHTSMAPAQDEERDSGKEQGHTRRHDWGHEKQRKHNLGHGHKHERDQGHGHQRGHGLGHGHEQQHGLGHGHKFKLDDDLEHQGGHVLDHGHKHKHGHGHGKHKNKGKKNGKHNGWKTEHLASSSEDSTTPSAQTQEKTEGPTPIPSLAKPGVTVTFSDFQDSDLIATMMPPISPAPIQSDDDWIPDIQIDPNGLSFNPISDFPDTTSPKCPGRPWKSVSEINPTTQMKESYYFDLTDGLS
modifications: High molecular weight kininogen carbamylated
